Laboratory results taken from patent publication US20250032788A1, “COMPOSITIONS AND METHODS FOR TREATING WITH A COMBINATION OF ALTERNATING ELECTRIC FIELDS AND DNA-DEPENDENT PROTEIN KINASE INHIBITORS” (NOVOCURE GMBH, priority 2023, published 2025).
“Also recorded” adds a separate entry of the source. Each block holds one molecule with its values, some of them ahead of it.

What was measured:
Type in all cases: cell-based
A549 cells [1] = experiment: Inhibitor titration, cell count by flow cytometer, A549; details: 72 hr, no TTFields
Procedure: (§1) This work was began with the titration of nedisertib. For these experiments 15,000 of A549 or H1299 cells/dish were seeded in 12-well plate and incubated overnight to allow cell attachment. The cells were then treated with various concentrations of nedisertib for 72 hr. The remaining cells were counted by flow cytometer (Guava easyCyte HT) (FIG. 11). […] For these experiments 15,000 of A549 or H1299 cells/dish were seeded in 12-well plates and incubated overnight to allow cell attachment. […] The remaining cells were counted by flow cytometer (Guava easy Cyte HT).

H1299 cells [2] = experiment: Inhibitor titration, cell count by flow cytometer, H1299; details: 72 hr, no TTFields
Procedure: as §1

A549 cells [3] = experiment: Concomitant TTFields and inhibitor: cell count, colony formation, annexin V/7AAD apoptosis, A549; details: for interaction of co-application of TTFields and inhibitor: summary statement
Procedure: (§2) In these experiments 15,000 of A549 cells/dish were seeded in inovitro dishes and incubated overnight to allow cell attachment. The cells were then treated with TTFields (0.97V/cm RMS, 150 kHz, 72 h), alone or with the addition of different concentrations of nedisertib, Efficacy was measured by analyzing cell count by flow cytometer (Guava easy Cyte HT), colony formation, and apoptosis induction by annexin V/7AAD staining. The overall effect was calculated by multiplying cell count with colony formation.
as §2, with “The cells were then treated with TTFields (0.97V/cm RMS, 150 kHz, 72 h), alone or with the addition of different concentrations of nedisertib,” left out

H1299 cells [4] = experiment: Concomitant TTFields and inhibitor: cell count, colony formation, annexin V/7AAD apoptosis, H1299; details: TTFields 0.97 V/cm RMS, 150 kHz, 72 h
Procedure: as §2, with “H1299” for “A549”, “(0.97 V/cm” for “(0.97V/cm”, “KHz,” for “kHz,”, “nedisertib.” for “nedisertib,”
as §2, with “H1299” for “A549”, “The cells were then treated with TTFields (0.97V/cm RMS, 150 kHz, 72 h), alone or with the addition of different concentrations of nedisertib,” left out

A549 cells [5] = experiment: Cell cycle distribution by flow cytometer, A549; details: for change in the sub G1 phase / cell cycle distribution, concomitant treatment with TTFields: 150 kHz; for cell cycle distribution, concomitant treatment with TTFields: different times
Procedure: (§3) The mechanism of action of the concomitant treatment was investigated and cell cycle analysis was performed. In these experiments 15,000 of A549 cells/dish were seeded in inovitro dishes and incubated overnight to allow cell attachment. The cells were then treated with TTFields (0.97 V/cm RMS. 150 kHz) for different times, alone or with the addition of 6 μM of nedisertib (FIG. 14). Cell cycle distribution was performed for each treatment alone and for the concomitant treatments using the Cytek® Northern Lights™ flow cytometer.
(§4) In these experiments, 15,000 of A549 cells/dish were seeded in inovitro dishes and incubated overnight to allow cell attachment. […] Cell cycle distribution was performed for each treatment alone and for the concomitant treatments using the Cytek® Northern Lights™ flow cytometer.

H1299 cells [6] = experiment: Cell cycle distribution by flow cytometer, H1299; details: 150 kHz, different times
Procedure: as §3, with “Similar results to the A549 cells were obtained in the H1299 cell line, where” for “The mechanism of action of”, “results in G1 arrest (FIG. 15).” for “was investigated and cell cycle analysis was performed.”, “H1299” for “A549”, “6.25” for “6”, “nedisertib.” for “nedisertib (FIG. 14).”
as §4, with “Similar results were obtained in the H1299 cell line, where the concomitant treatment results in G1 arrest (FIG. 20). In” for “In”, “experiments” for “experiments,”, “H1299” for “A549”

DNA-PK = target: T1, DNA-PK (Homo sapiens, UniProt P78527); experiment: Western blot of DNA-PK autophosphorylation (pS2056) after radiation in primary glioma stem-like cells; details: VX984 250 nM, radiation 5 Gy, CX18 edge 2, CX18 core 1, OX5 edge and OX5 core
T1 construct: primary glioma stem-like cells (GSCs) treated with DNA-PKi or IR alone or in combination; endogenous in cells; host or cells: CX18 core 1 / edge 2 and OX5 core / edge primary glioma stem-like cells

[7] = system: CX18 edge 2, CX18 core 1, OX5 edge and OX5 core primary glioblastoma cells; experiment: Clonogenic survival assay with TTFields, VX984 and radiation in 3D Alvetex culture; details: VX984 250 nM, 1 hr pre-treatment, TTFields 200 kHz, 72 hr, radiation, n=3
Procedure: Clonogenic survival assays of cells pre-treated with VX984 (250 nM, 1 hr) before TTFields incubation (200 kHz, 72 hr) in CX18 edge 2, CX18 core 1, OX5 edge and OX5 core cells. n=3, statistical significance denoted through ANOVA one-way analysis. Representative images of cell death post TTFields treatment in CX18 edge 2), CX18 core 2, OX5 edge and OX5 core cells.
FIG. 6 is a table with a summary of the survival data of TTFields alongside VX984 and radiation. The average intratumoural survival fractions (INTRA); OX5 core vs edge and CX18 core vs edge and the average intertumoural survival fraction; OX5 INTRA vs CX18 INTRA are shown. Bliss indices are calculated to ascertain if cell death is synergistic or addictive using the survival fraction product of DMSO+TTF and Combo−TTF as a ratio against Combo+TTF. Ratios<1.1 are seen as additive cell death whereas>1.1 is synergistic.

[8] = TTFields 0.97 V/cm RMS, 150 kHz, 72 h, different concentrations
[9] = 0.11 μM CC-115, TTFields 0.97 V/cm RMS
[10] = 6 μM nedisertib, TTFields 0.97 V/cm RMS

IC50 (remaining cells counted) (A549 cells [1]): much lower than that of nedisertib
Molecule: CCN1C(=O)CNc2ncc(-c3ccc(-c4nc[nH]n4)nc3C)nc21 [CC-115]
IC50 (remaining cells counted) (H1299 cells [2]): much lower than that of nedisertib; also recorded: higher than that of A549 | levels of apoptosis at the concentration used for cell cycle analysis (A549 cells [3]; 0.11 μM CC-115): low levels of apoptosis | overall effect (cell count multiplied by colony formation) of inhibitor with TTFields (A549 cells [3]; [8]): synergistically enhanced; also recorded: enhance | interaction of co-application of TTFields and inhibitor (A549 cells [3]): synergistic interaction | overall effect (cell count multiplied by colony formation) of inhibitor with TTFields (H1299 cells [4]; different concentrations): additive overall effect; also recorded: enhance | change in the sub G1 phase (A549 cells [5]; [9]): don't see a significant change | cell cycle distribution, concomitant treatment with TTFields (A549 cells [5]; [9]): induced G1 arrest and a decreased number of s-phase cells; also recorded: promotes cell cycle arrest | cell cycle distribution, concomitant treatment with TTFields (H1299 cells [6]; 0.3125 μM CC-115, TTFields 0.97 V/cm RMS): G1 arrest; also recorded: promotes cell cycle arrest

IC50 (remaining cells counted) (H1299 cells [2]): higher than that of A549
Molecule: COc1ccc([C@@H](O)c2cc(-c3ncnc4cc(N5CCOCC5)ccc34)c(F)cc2Cl)nn1 [Nedisertib]
levels of apoptosis at the concentration used for cell cycle analysis (A549 cells [3]; 6 μM nedisertib): low levels of apoptosis | apoptotic effect of the concomitant treatment (annexin V/7AAD) (A549 cells [3]; TTFields 0.97 V/cm RMS, 150 kHz, 72 h): only significant in the higher doses | cytotoxic effect (cell count) of inhibitor with TTFields (A549 cells [3]; [8]): synergistically enhanced; also recorded: enhance | overall effect (cell count multiplied by colony formation) of inhibitor with TTFields (A549 cells [3]; [8]): synergistically enhanced; also recorded: enhance | interaction of co-application of TTFields and inhibitor (A549 cells [3]): synergistic interaction | apoptotic effect of the concomitant treatment (annexin V/7AAD) (H1299 cells [4]): only significant in the higher doses | interaction of concomitant treatment of TTFields and inhibitor (H1299 cells [4]): additive interaction | cytotoxic effect (cell count) of inhibitor with TTFields (H1299 cells [4]; different concentrations): enhance | overall effect (cell count multiplied by colony formation) of inhibitor with TTFields (H1299 cells [4]; different concentrations): enhance | interaction of concomitant treatment of TTFields and inhibitor (H1299 cells [4]; listed as nedisertib): additive effect | change in the sub G1 phase (A549 cells [5]; [10]): don't see a significant change | cell cycle distribution, concomitant treatment with TTFields (A549 cells [5]; [10]): highest level of arrest; also recorded: promotes cell cycle arrest | cell cycle distribution, inhibitor alone (A549 cells [5]; 6 μM nedisertib, at most time points): induce G1 arrest and a decreased number of s-phase cells | cell cycle distribution, concomitant treatment with TTFields (H1299 cells [6]; 6.25 μM nedisertib, TTFields 0.97 V/cm RMS): G1 arrest; also recorded: promotes cell cycle arrest

Molecule: VX984
pDNAPK (pS2056) signal in response to radiation (DNA-PK): depletion of pDNAPK (pS2056) signal | glioblastoma cell death (clonogenic survival) [7]: enhances glioblastoma cell death by radiosensitisation
